This note sets out measurements from US7452997B2 (priority 2004, dated 2008).

pIC50: −log10 of the molar value.

This experiment has as its target T1, human CB1 receptor (Homo sapiens, UniProt P21554).
T1 construct: expressed in transfected cells; host or cells: SK-N-MC cells, stably transfected with pcDNA3 CB-1 (human); semi-purified membrane pellet
Nature of the experiment: biochemical. The class given is binding. Here is the method:
Binding Assay for CB1 or CB2 Agonists or Inverse Agonists
The human CB1 and CB2 receptors were stably expressed in SK-N-MC cells transfected with pcDNA3 CB-1 (human) or pcDNA3 CB-2 (human). The cells were grown in T-180 cell culture flasks under standard cell culture conditions at 37° C. in a 5% CO2 atmosphere. The cells were harvested by trysinization and homogenized in a homogenization buffer (10 mM Tris, 0.2 mM MgCl2, 5 mM KCl, with protease inhibitors aprotinin, leupeptin, pepstatin A and bacitracin) and centrifuged (2000 g). The supernatant was then centrifuged in 2M sucrose (31,300 g) to produce a semi-purified membrane pellet. The pellet was resuspended in homogenization and store at −80° C.
On the day of the assay, the pellet was thawed on ice and diluted in assay buffer (50 mM Tris-HCl, 5 mM MgCl2, 2.5 mM EDTA, 0.5 mg/mL fatty acid free bovine serum albumin, pH 7.5). […] The plate was covered and incubated for 90 minutes at 30° C. The contents were then aspirated onto a Packard […] GF/C filter bottom plate prewet with 0.5% polyethyleneimine. The wells of the polypropylene plate were rinsed and aspirated seven times with a 0.9% saline-0.5% TWEEN 20 solution. The […] plate was dried, a scintillation cocktail was added to each well and the counts representing binding were quantitated in a TOPCOUNT scintillation counter.
The IC50 binding values for compounds tested were calculated by linear regression and were obtained from studies in which varying compound concentrations were used.

T1 sequence (P21554 whole entry): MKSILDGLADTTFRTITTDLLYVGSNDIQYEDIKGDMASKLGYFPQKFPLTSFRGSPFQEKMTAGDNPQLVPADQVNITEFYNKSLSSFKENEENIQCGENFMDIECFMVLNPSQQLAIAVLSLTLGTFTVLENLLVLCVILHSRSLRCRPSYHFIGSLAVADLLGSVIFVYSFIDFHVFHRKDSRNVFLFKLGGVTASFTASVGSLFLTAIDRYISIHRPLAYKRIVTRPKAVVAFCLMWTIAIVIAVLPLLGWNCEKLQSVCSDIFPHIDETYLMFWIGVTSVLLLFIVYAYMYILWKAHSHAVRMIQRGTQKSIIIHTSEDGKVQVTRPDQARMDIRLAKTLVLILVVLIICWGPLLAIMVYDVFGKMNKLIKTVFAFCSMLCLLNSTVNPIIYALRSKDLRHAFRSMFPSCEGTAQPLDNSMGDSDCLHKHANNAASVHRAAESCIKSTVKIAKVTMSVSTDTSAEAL

`O=C(NCCN1CCOCC1)c1nn(Cc2ccccc2)c2c1CCCC2` [compound 175]: the negative logarithm of the IC50 (pIC50) (commonly −log10 of the IC50, conventionally taken in molar units) was 5.67.

Take `C[C@@H](NC(=O)c1nn(-c2ccc(Cl)cc2Cl)c2c1CCCC2=Cc1ccc(Cl)s1)C1CCCCC1` [compound 385]: the pIC50 is 8.15. Compound `C[C@H](NC(=O)c1nn(-c2ccc(Cl)cc2Cl)c2c1CCCC2=Cc1ccc(F)cc1)c1ccccc1` [compound 308] had a negative logarithm of the IC50 (pIC50) of 7.72.

`O=C(NN1CCCC1)c1nn(-c2ccc(Cl)cc2Cl)c2c1CCC/C2=C\c1ccco1` [compound 377]: the pIC50 was 7.37. This pIC50 is 0.35 log units lower than that of the compound before. In the case of `O=C(NN1CCCCCC1)c1nn(-c2ccc(Cl)cc2Cl)c2c1CCC/C2=C\c1ccsc1` [compound 348], the negative-log IC50 (pIC50) was 7.96.

Compound `C[C@@H](NC(=O)c1nn(-c2ccc(Cl)cc2Cl)c2c1CCC/C2=C\c1ccoc1)c1ccccc1` [compound 358] showed a pIC50 of 7.89. Next, `C[C@@H](NC(=O)c1nn(-c2ccc(Cl)cc2Cl)c2c1CCCC2=Cc1ccc(Br)o1)c1ccccc1` [compound 397]: 7.23; `C[C@@H](NC(=O)c1nn(-c2ccc(Cl)cc2Cl)c2c1CCC/C2=C\c1ccc(Br)cc1)c1ccccn1` [compound 381]: 7.82; `C[C@@H](NC(=O)c1nn(-c2ccc(Cl)cc2Cl)c2c1CCC/C2=C\c1ccsc1)c1ccccc1` [compound 353]: 7.80. `CC(C)(C)C1CCc2c(c(C(=O)NCC34CC5CC(CC(C5)C3)C4)nn2C2CCCCC2)C1` (stereo not shown) [compound 102] gave a pIC50 of 4.51.

As to `O=C(NN1CCCCCC1)c1nn(-c2ccc(Cl)cc2Cl)c2c1CCCC2=Cc1ccco1` [compound 373], the pIC50 was 7.70. Turning to `O=C(N[C@@H]1C2CCC(C2)[C@@H]1COCc1ccccc1Br)c1nn(C2CCCCC2)c2c1CCCC2` (stereo partly shown) [compound 108], the pIC50 was 5.62. Compared with the last compound, the pIC50 is 2.08 log units lower. Next, `O=C(NN1CC2CCCC2C1)c1nn(-c2ccc(Cl)cc2Cl)c2c1CCCC2=Cc1ccc(Br)cc1` (stereo not shown) [compound 380]: 7.49. Next, `C[C@@H](NC(=O)c1nn(-c2ccc(Cl)cc2Cl)c2c1CCCC2=Cc1ccc(Br)cc1)c1ccccc1` [compound 383]: 8.00; `CC12CCC(C1)C(C)(C)C2NC(=O)c1nn(C2CCCCC2)c2c1CC(=O)CC2` (stereo not shown) [Cpd 96, 1-cyclohexyl-5-oxo-4,5,6,7-tetrahydro-1H-indazole-3-carboxylic acid (1,3,3-trimethyl-bicyclo[2.2.1]hept-2-yl)-amide]: 5.02. With `C[C@@H](NC(=O)c1nn(-c2ccc(Cl)cc2Cl)c2c1CCCC2=Cc1ccsc1)C1CCCCC1` [compound 351], the pIC50 was 7.92. For the compound `O=C(NN1CCCCC1)c1nn(-c2ccc(Cl)cc2Cl)c2c1CCC/C2=C\c1ccc(Cl)s1` [compound 387], the pIC50 was 7.48. This pIC50 lies 0.44 log units lower than the previous one. Next, `O=C(NN1CCCCC1)c1nn(-c2ccc(Cl)cc2Cl)c2c1CCCC2=Cc1ccsc1` [compound 347]: 7.74. `C[C@@H](NC(=O)c1nn(-c2ccc(Cl)cc2Cl)c2c1CCCC2=Cc1ccc(Br)cc1)C1CCCCC1` [compound 382] showed a negative logarithm of the IC50 (pIC50) of 8.30. Next, `CN(C)S(=O)(=O)NC1CCc2c(c(C(=O)NC3C4CC5CC(C4)CC3C5)nn2C2CCCCC2)C1` (stereo not shown) [compound 106]: 4.90; `O=C(NN1CCCCCC1)c1nn(-c2ccc(Cl)cc2Cl)c2c1CCC/C2=C\c1ccc(Cl)s1` [compound 388]: 7.82. The compound `O=C(NC1CCCCCCC1)c1nn(C2CCCCC2)c2c1CCCC2` [compound 128] gave a negative-log IC50 (pIC50) of 8.00. The pIC50 values of the last two compounds are within 0.2 log units of each other.

`O=C(N[C@H](CO)c1ccccc1)c1nn(-c2ccc(Cl)cc2Cl)c2c1CCCC2=Cc1ccsc1` [compound 356]: the pIC50 was 7.11. The compound `CN(C(=O)NC1CCc2c(c(C(=O)NC3C4CC5CC(C4)CC3C5)nn2C2CCCCC2)C1)c1ccccc1` (stereo not shown) [compound 103] showed a pIC50 of 5.70. Compared with the last compound, the pIC50 is 1.41 log units lower. For `CC1CCCC(C)N1NC(=O)c1nn(-c2ccc(Cl)cc2Cl)c2c1CCC/C2=C\c1ccc(Cl)s1` (stereo not shown) [compound 389], the negative-log IC50 (pIC50) was 7.85. Consider `O=C(NN1CCCCC1)c1nn(-c2ccc(Cl)cc2Cl)c2c1CCC/C2=C\c1ccoc1` [compound 364], for which the pIC50 was 7.80. This pIC50 and that of the compound before are within 0.2 log units of each other.

Turning to `C[C@@H](NC(=O)c1nn(-c2ccc(Cl)cc2Cl)c2c1CCCC2=Cc1ccco1)c1ccccc1` [compound 371], the negative-log IC50 (pIC50) was 7.41. This pIC50 is 0.39 log units lower than that of the compound before. Next, `O=C(NN1CCCC1)c1nn(-c2ccc(Cl)cc2Cl)c2c1CCCC2=Cc1ccsc1` [compound 357]: 7.68; `O=C(NN1CC2CCCC2C1)c1nn(-c2ccc(Cl)cc2Cl)c2c1CCC/C2=C\c1ccc(Cl)s1` (stereo not shown) [compound 390]: 7.70; `O=C(NN1CCCC1)c1nn(-c2ccc(Cl)cc2Cl)c2c1CCCC2=Cc1ccoc1` [compound 368]: 7.41. For `CC1CCCC(C)N1NC(=O)c1nn(-c2ccc(Cl)cc2Cl)c2c1CCCC2=Cc1ccoc1` (stereo not shown) [compound 362], the pIC50 is 7.42. Compound `O=C(NC1C2CC3CC(C2)CC1C3)c1nn(C2CCCCC2)c2c1CC(C(=O)Nn1cnnc1)CC2` (stereo not shown) [compound 95] showed a negative logarithm of the IC50 (pIC50) of 5.19.

In turn, `O=C(NN1CCCCCC1)c1nn(-c2ccc(Cl)cc2Cl)c2c1CCCC2=Cc1ccc(F)cc1` [compound 339] had a pIC50 of 8.10. In the case of `O=C(NC(Cc1ccc(OCc2ccccc2)cc1)C(=O)O)c1nn(Cc2ccccc2)c2c1CCCC2` (stereo not shown) [compound 76], the pIC50 is 5.71. With `CC1CCCC(C)N1NC(=O)c1nn(-c2ccc(Cl)cc2Cl)c2c1CCCC2=Cc1cccs1` (stereo not shown) [compound 344], the pIC50 was 7.28.

The compound `O=C(NN1CCCCCC1)c1nn(-c2ccc(Cl)cc2Cl)c2c1CCCC2=Cc1cccs1` [compound 343] had a pIC50 of 7.43. For `C[C@@H](NC(=O)c1nn(-c2ccc(Cl)cc2Cl)c2c1CCCC2=Cc1cccs1)C1CCCCC1` [compound 341], the negative logarithm of the IC50 (pIC50) is 7.70. `O=C(NN1CCCCC1)c1nn(-c2ccc(Cl)cc2Cl)c2c1CCC/C2=C\c1ccco1` [compound 374]: the negative-log IC50 (pIC50) was 7.72. The compound `O=C(NN1CC2CCCC2C1)c1nn(-c2ccc(Cl)cc2Cl)c2c1CCC/C2=C\c1ccoc1` (stereo not shown) [compound 365] had a negative-log IC50 (pIC50) of 7.80.

`CC(C)(C)C1CCc2c(c(C(=O)NC3C4CC5CC(C4)CC3C5)nn2C2CCCCC2)C1` (stereo not shown) [compound 98] showed a negative-log IC50 (pIC50) of 4.69. Next, `C[C@@H](NC(=O)c1nn(-c2ccc(Cl)cc2Cl)c2c1CCC/C2=C\c1ccc(Cl)s1)c1ccccc1` [compound 386]: 7.96; `O=C(NN1CCCCC1)c1nn(-c2ccc(Cl)cc2Cl)c2c1CCCC2=Cc1cccs1` [compound 342]: 7.39; `O=C(NN1CC2CCCC2C1)c1nn(-c2ccc(Cl)cc2Cl)c2c1CCCC2=Cc1cccs1` (stereo not shown) [compound 346]: 7.48. `O=C(NN1CCCCC1)c1nn(-c2ccc(Cl)cc2Cl)c2c1CCC/C2=C\c1ccc(Br)cc1` [compound 384] gave a pIC50 of 7.68. Next, `CC(C)(C)OC(=O)NC1CCc2nn(C3CCCCC3)c(C(=O)NC3C4CC5CC(C4)CC3C5)c2C1` (stereo not shown) [compound 84]: 6.40; `C[C@@H](NC(=O)c1nn(-c2ccc(Cl)cc2Cl)c2c1CCC/C2=C\c1ccc(Br)o1)C1CCCCC1` [compound 398]: 7.32. In turn, `CC1CCCC(C)N1NC(=O)c1nn(-c2ccc(Cl)cc2Cl)c2c1CCC/C2=C\c1ccsc1` (stereo not shown) [compound 349] gave a negative logarithm of the IC50 (pIC50) of 7.40.

Compound `O=C(NN1CCCC1)c1nn(-c2ccc(Cl)cc2Cl)c2c1CCCC2=Cc1cccs1` [compound 345] gave a pIC50 of 7.15.

Regarding `O=C(NN1CCCCCC1)c1nn(-c2ccc(Cl)cc2Cl)c2c1CCC/C2=C\c1ccoc1` [compound 363], the negative-log IC50 (pIC50) was 7.89.

In turn, `O=C(NN1CCCC1)c1nn(-c2ccc(Cl)cc2Cl)c2c1CCCC2=Cc1ccc(Cl)s1` [compound 393] gave a negative logarithm of the IC50 (pIC50) of 7.37.

Turning to `O=C(NN1CC2CCCC2C1)c1nn(-c2ccc(Cl)cc2Cl)c2c1CCC/C2=C\c1ccco1` (stereo not shown) [compound 376], the negative-log IC50 (pIC50) is 7.80. Compared with the last compound, the pIC50 is 0.43 log units higher. Regarding `C[C@@H](NC(=O)c1nn(-c2ccc(Cl)cc2Cl)c2c1CCCC2=Cc1ccoc1)C1CCCCC1` [compound 360], the negative logarithm of the IC50 (pIC50) was 7.92. Consider `Cc1ccc(S(=O)(=O)NC2CCc3c(c(C(=O)NC4C5CC6CC(C5)CC4C6)nn3C3CCCCC3)C2)cc1` (stereo not shown) [compound 105], for which the pIC50 is 5.07.

`CC(c1ccccc1)n1nc(C(=O)N[C@@H](C)C2CCCCC2)c2c1CCCC2` (mixture of isomers) [Cpd 249, 1-(1-phenyl-ethyl)-4,5,6,7-tetrahydro-1H-indazole-3-carboxylic acid [(1S)-1-cyclohexyl-ethyl]-amide] showed a pIC50 of 7.30. As to `O=C(NN1CC2CCCC2C1)c1nn(-c2ccc(Cl)cc2Cl)c2c1CCC/C2=C\c1ccsc1` (stereo not shown) [compound 350], the pIC50 is 7.77.
